These results are taken from patent publication US20230381117A1, “ANTI-OBESITY POTENTIAL OF BISDEMETHOXYCURCUMIN COMPOSITIONS” (SAMI-SABINSA GROUP LIMITED, priority 2020, published 2023).

The test system of data set [1] is high fat diet induced obesity in C57 mice. Nature of the data set: High fat diet induced obesity in C57 mice. The conditions noted are these: high fat diet fed mice, 50 mg/kgbw; FIG. 6. The data set is classed as in vivo, C57/BL6 mice. On the procedure:
Animals-C57/BL6 mice, 6-8 weeks of age and 8 animals/Group (4 Male and 4 Female) were used for the study. […] The temperature and relative humidity was recorded once daily. Feed: […] Water was provided along with High Fat Diet to the animals throughout the acclimatization and experimental period. Water from water filter cum purifier was provided in animal feeding bottle with stainless steel sipper tubes. The design of the study groups is depicted in table 4. [table] Body weight of the animals was recorded in all the days of experimental period. At the end of the experimental period, the animals were sacrificed by cervical dislocation. Blood was collected and Serum was separated by centrifugation and used for the analysis of biochemical parameters. […] The following parameters were measured in the above groups: • Measurement of Body weight: Determination of Organ Weight13 Liver, Visceral adipose tissue (VAT) and subcutaneous adipose tissue (SAT) • Estimation of Cholesterol (Zak et al., (2009) A new method for the determination of serum cholesterol. J Clin Endocrinol Metab., 94(7), 2215-2220) • Estimation of Triglycerides (Foster L. B and Dunn R. T. (1973) Stable reagents for determination of serum triglycerides by a colorimetric Hantzsch condensation method. Clin Chem, 196, 338-340). • Estimation of HDL Cholesterol (Burstein et al., (1970). Determination of HDL cholesterol. […]

Data set [2] has as its system Mouse 3T3-L1 pre-adipocytes. Nature of the data set: Adipogenesis inhibition, lipid accumulation by Oil red O staining in cultured 3T3L1. It counts as cell-based. The protocol:
Stock was diluted 1000 times in DMEM to get 10 μg/ml final concentration and serially diluted. Insulin (Hi Media) was bought as a solution at a concentration of 20 mg/ml. This was diluted to 1 μg/ml in DMEM. IBMX (Sigma)—Stock of 5 mM was prepared in DMEM, and diluted 10 times to be used at a final concentration of 0.5 mM. Dexamethasone (Sigma)—A stock of 10 μM was prepared in DMEM and diluted 40 times to get a final concentration of 0.25 μM. Mouse 3T3-L1 pre-adipocytes were cultured in DMEM media containing 25 mM glucose, 10% heat-inactivated new born calf serum (NBCS) and antibiotics at 37° C. and 5% CO2. When the cells were 70-80% confluent, they were trypsinized, washed and seeded in 48 well plates at a density of 3×10^4 cells per well. […] After differentiation for two days, The media was replaced with DMEM containing insulin (1 μg/mL) and different concentrations of test ingredients on alternate days until the cells were processed after 3rd progression. Untreated cells grown in differentiation media and undifferentiated cells grown in NBCS media were taken as adipogenesis positive and negative controls for the experiment. Quantification of triglycerides accumulated in adipocytes was done by Oil red O staining.

Setting [3] is: Table 2B, 1.5625 μg/ml, 3T3-L1, Oil red O, read-out: Adipogenesis inhibition.
Where [4] appears, read: Table 2B, 3.125 μg/ml, 3T3-L1, Oil red O, read-out: Adipogenesis inhibition.
[5] abbreviates: 3T3-L1, read-out: Adipogenesis inhibition.

SMILES strings stand for the structures. Like-named read-outs stand apart in the source and are kept apart here.

As for `O=C(/C=C/c1ccc(O)cc1)CC(=O)/C=C/c1ccc(O)cc1` [BDMC, bisdemethoxycurcumin], the “Adverse effect on weight of the liver / critical organs” value in data set [1] is “does not induce any adverse effects”. Besides, in data set [2] (setting [3]), the inhibition at 1.5625 µg/mL came out at 20.2%. Moreover, the inhibition at 3.125 µg/mL in data set [2] (setting [4]) was 16.2%.
`COc1cc(/C=C/C(=O)CC(=O)/C=C/c2ccc(O)c(OC)c2)ccc1O` [Curcumin, curcumin]: the inhibition at 1.5625 µg/mL in data set [2] (setting [3]) was 11.6%. In data set [2] (setting [4]), the inhibition at 3.125 µg/mL is 11.1%.
On to `COc1cc(/C=C/C(O)=C/C(=O)/C=C/c2ccc(O)cc2)ccc1O` [DMC, demethoxycurcumin], for which, in data set [2] (setting [5]), the inhibition at 1.5625 µg/mL is 21% and the inhibition at 3.125 µg/mL was determined as 19.4%.

As usually defined, the inhibition is the percentage by which the read-out fell short of the control.
